Measurements as given in US9284308B2, “Methylene linked quinolinyl modulators of RORγt” (Janssen Pharmaceutica NV, priority 2013, dated 2016).

How the values were obtained:
[1] = target: T1, human RORγt ligand binding domain (RORγt LBD) (Homo sapiens, UniProt P51449); assay: RORγt ThermoFluor assay (ligand binding affinity from protein thermal stability)
T1 construct: His-tag (N); TurboTEV protease cleavage site (ENLYFQG) (N); made in house; host or cells: E. coli (pHIS1, modified pET vector)
T1 sequence (P51449 with tags, fused parts or gaps): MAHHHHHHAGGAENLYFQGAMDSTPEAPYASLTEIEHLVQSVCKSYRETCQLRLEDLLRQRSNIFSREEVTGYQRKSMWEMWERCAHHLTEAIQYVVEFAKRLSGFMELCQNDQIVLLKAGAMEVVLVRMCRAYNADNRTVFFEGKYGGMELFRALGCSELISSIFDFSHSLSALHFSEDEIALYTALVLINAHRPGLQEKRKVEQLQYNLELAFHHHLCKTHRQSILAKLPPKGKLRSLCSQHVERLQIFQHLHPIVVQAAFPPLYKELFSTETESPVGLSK
Procedure: This approach is applicable to a wide variety of systems, and rigorous in theoretical interpretation through quantitation of equilibrium binding constants (KD).
The shift in the melting point described as a ΔTm is proportional to the concentration and affinity of the ligand.
RORγt ThermoFluor® Assay Construct
Protein and compound solutions are dispensed into black 384-well polypropylene PCR microplates (Abgene) and overlayed with silicone oil (1 μL, Fluka, type DC 200) to prevent evaporation.
Bar-coded assay plates are robotically loaded onto a thermostatically controlled PCR-type thermal block and then heated at a typical ramp-rate of 1° C./min for all experiments. Fluorescence was measured by continuous illumination with UV light (Hamamatsu LC6) supplied via fiber optic and filtered through a band-pass filter (380-400 nm; >6 OD cutoff). Fluorescence emission of the entire 384-well plate was detected by measuring light intensity using a CCD camera (Sensys, Roper Scientific) filtered to detect 500±25 nm, resulting in simultaneous and independent readings of all 384 wells. Images were collected at each temperature, and the sum of the pixel intensity in a given area of the assay plate was recorded versus temperature. Reference wells contained RORγt without compounds, and the assay conditions were as follows: • 0.065 mg/mL RORγt • 60 μM 1,8-ANS • 100 mM Hepes, pH 7.0 • 10 mM NaCl • 2.5 mM GSH • 0.002% Tween-20
Project compounds were arranged in a pre-dosed mother plate (Greiner Bio-one) wherein compounds are serially diluted in 100% DMSO by 1:2 from a high concentration of 10 mM over 12 columns within a series (column 12 is a reference well containing DMSO, no compound). The compounds were robotically dispensed directly into assay plates (1×=[…]) using a Hummingbird capillary liquid handling instrument (Digilab). Following compound dispense, protein and dye in buffer was added to achieve the final assay volume of 3 μL, followed by 1 μL of silicone oil.

human RORγt LBD = target: T2, human RORγt LBD (Homo sapiens, UniProt P51449); assay: RORγt (LBD) reporter assay in HEK293T cells; assay type: cell-based; conditions: for RORγt (LBD) Reporter Assay, % inhibition @ 6 μM: 6 μM compound; for inhibition at 6 µM: HEK-293T, read-out: RORγt (LBD) Reporter Assay, % inhibition @ 6 μM, 6 μM compound
T2 construct: expressed in transfected cells; host or cells: HEK293T
T2 sequence (P51449 258-518): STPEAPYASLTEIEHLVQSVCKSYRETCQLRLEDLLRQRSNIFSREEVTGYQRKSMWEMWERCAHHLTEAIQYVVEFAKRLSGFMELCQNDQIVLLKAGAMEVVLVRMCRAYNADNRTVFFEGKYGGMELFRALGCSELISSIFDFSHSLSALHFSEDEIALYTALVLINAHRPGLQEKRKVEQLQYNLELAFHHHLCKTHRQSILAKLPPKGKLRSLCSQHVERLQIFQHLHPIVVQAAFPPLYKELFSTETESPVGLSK
Source text: RORγt (LBD) Reporter Assay
Cells used in the assay were co-transfected with two constructs. The first construct, pBIND-RORγt LBD, contained the wild type human RORγt LBD fused to the DNA binding domain of the GAL4 protein. The second construct, pGL4.31 (Promega Cat no. C935A), contained multiple GAL4 responsive DNA elements upstream of firefly luciferase. […] The mutant construct was called pBIND-RORγt-AF2.
The pBIND vector contains the GAL4 DNA Binding Domain (GAL4 DBD) and the renilla luciferase gene under control of the SV40 promoter. Renilla luciferase expression serves as a control for transfection efficiency and cell viability.
The reporter assay was performed by transiently transfecting HEK293T cells with 5 μg of pBIND-RORγt LBD or pBIND-RORγt LBD-AF2 and 5 μg pGL4.31 (Promega Cat no. C935A) using Fugene 6 (Invitrogen Cat no. E2691) at a 1:6 ratio of DNA:Fugene 6 in a T-75 flask in which cells were at least 80% confluent. Twenty four hours after bulk transfection, cells were plated into 96-well plates at 50,000 cells/well in phenol-red free DMEM containing 5% Lipid Reduced FCS and Pen/Strep. Six hours after plating, cells were treated with compounds for 24 hours. Media was removed and cells were lysed with 50 μL 1× Glo Lysis Buffer (Promega). Dual Glo Luciferase Reagent (50 μL/well) was then added and firefly luciferase luminescence was read on an Envision after a ten minute incubation. Finally, Stop and Glo reagent (50 μL/well) was added and renilla luciferase luminescence was read on an Envision after a ten minute incubation. […] Agonist compounds increase RORγt-driven luciferase expression, and antagonist or inverse agonist compounds decrease luciferase expression.

[2] = test system: IL-17 production by CD4 T cells; assay: Human Th17 assay; assay type: cell-based; conditions: Homo sapiens, CD4+ T, IL-17 production by human CD4 T cells
Procedure: The human Th17 assay tests the effect of RORγt modulatory compounds on IL-17 production by CD4 T cells under conditions which favor Th17 differentiation. Total CD4^+ T cells were isolated from the peripheral blood mononuclear cells (PBMC) of healthy donors using a CD4^+ T cell isolation kit II, following the manufacturer's instructions (Miltenyi Biotec). […] 50 μL of compound at titrated concentrations in DMSO were added into each well at final DMSO concentration at 0.2%. Cells were incubated for 1 hour, then 50 μL of Th17 cell differentiation medium was added to each well. The final concentrations of antibodies and cytokines (R&D Systems) in differentiation medium were: 3×10^6/mL anti-CD3/CD28 beads (prepared using human T cell activation/expansion kit, Miltenyi Biotec), 10 μg/mL anti-IL4, 10 μg/mL anti-IFNγ, 10 ng/mL IL1β, 10 ng/mL IL23, 50 ng/mL IL6, 3 ng/mL TGFβ and 20 U/mL IL2. Cells were cultured at 37° C. and 5% CO2 for 3 days. Supernatants were collected and the accumulated IL-17 in culture was measured by using MULTI-SPOT® Cytokine Plate following manufacture's instruction (Meso Scale Discovery). The plate was read using Sector Imager 6000, and IL-17 concentration was extrapolated from the standard curve. The IC50s were determined by GraphPad.

Row | Kd [1] | IC50 (human RORγt LBD) | RORγt (LBD) Reporter Assay, % inhibition @ 6 μM (human RORγt LBD) | IC50 [2] | inhibition at 6 µM (human RORγt LBD) | Structure (SMILES)
1 | 0.3 nM | ~80 nM | 63% | 2.3 nM | – | COc1nc2ccc(C(O)(c3ccc(C)nc3C)c3cnnn3C)cc2c(Cl)c1Cc1ccc(F)cc1 (single isomer, unassigned) [Example 48c, (4-Chloro-3-(4-fluorobenzyl)-2-methoxyquinolin-6-yl)(2,6-dimethylpyridin-3-yl)(1-methyl-1H-1,2,3-triazol-5-yl)methanol]
2 | 66 nM | 72 nM | – | 110 nM | 92% | COc1nc2ccc(C(O)(c3ccc(Cl)cc3)c3cncn3C)cc2c(Cl)c1Cc1ccc(C(F)(F)F)nc1 (centres unmarked) [Example 39a]
3 | 20 nM | 310 nM | – | 250 nM | 90% | COc1nc2ccc(C(O)(c3ccc(C(F)(F)F)cc3)c3cccnc3)cc2c(Cl)c1Cc1ccc(-n2cccn2)cc1 (centres unmarked) [Example 162a]

Second part, the compound before the results:

Row | Structure (SMILES) | Kd [1] | IC50 (human RORγt LBD) | RORγt (LBD) Reporter Assay, % inhibition @ 6 μM (human RORγt LBD) | IC50 [2] | inhibition at 6 µM (human RORγt LBD)
4 | COc1nc2ccc(C(O)(c3ccc(Cl)cc3)c3cncn3C)cc2c(Cl)c1Cc1ccc(C(F)(F)F)nc1 (single isomer, unassigned) [Example 39c] | 19 nM | 81 nM | 98% | 37 nM | –
5 | COc1nc2ccc(C(O)(c3ccc(C(F)(F)F)cc3)c3cccnc3)cc2c(Cl)c1Cc1ccc(-n2cccn2)cc1 (single isomer, unassigned) [Example 162c] | 4.1 nM | 98 nM | 98% | 49 nM | –
